ChEMBL document CHEMBL3046253, “Design, synthesis and in vitro PDE4 inhibition activity of certain quinazolinone derivatives for treatment of asthma” (Med Chem Res, 2012)

target: 3',5'-cyclic-AMP phosphodiesterase 4B (Homo sapiens) (UniProt Q07343); assay: Inhibition of PDE4B2 (unknown origin) using FAM-cAMP as substrate at 10 uM after 60 min by fluorescence polarization assay
Sequence (Q07343 whole entry): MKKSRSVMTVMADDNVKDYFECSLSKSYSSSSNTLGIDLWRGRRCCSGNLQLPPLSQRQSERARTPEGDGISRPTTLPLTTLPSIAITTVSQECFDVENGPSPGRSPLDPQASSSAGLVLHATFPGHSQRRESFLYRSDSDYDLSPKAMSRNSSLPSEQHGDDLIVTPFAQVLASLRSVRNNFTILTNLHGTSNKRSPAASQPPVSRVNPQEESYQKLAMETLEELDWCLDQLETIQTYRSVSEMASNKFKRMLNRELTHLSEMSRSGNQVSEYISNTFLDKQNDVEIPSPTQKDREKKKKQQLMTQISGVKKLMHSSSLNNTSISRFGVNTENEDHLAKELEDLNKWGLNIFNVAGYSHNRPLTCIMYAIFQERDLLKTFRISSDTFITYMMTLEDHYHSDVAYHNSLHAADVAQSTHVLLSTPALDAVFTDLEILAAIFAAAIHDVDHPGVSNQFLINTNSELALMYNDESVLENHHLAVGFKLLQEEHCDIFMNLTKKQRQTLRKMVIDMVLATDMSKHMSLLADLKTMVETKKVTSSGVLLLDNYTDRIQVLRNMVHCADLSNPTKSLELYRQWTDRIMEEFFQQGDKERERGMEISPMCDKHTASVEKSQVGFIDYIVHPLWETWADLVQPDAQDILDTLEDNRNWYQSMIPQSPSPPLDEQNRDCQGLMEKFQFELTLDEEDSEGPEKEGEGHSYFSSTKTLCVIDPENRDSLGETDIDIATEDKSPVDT

Row | inhibition | Compound
1 | 62% | CCCCn1c(=O)c2ccccc2n2c(-c3ccc(O)c(OC)c3)nnc12
2 | 44% | CCCCn1c(=O)c2ccccc2n2c(-c3cccc(O)c3)nnc12
3 | 44% | CCCCn1c(=O)c2ccccc2n2c(-c3cccc([N+](=O)[O-])c3)nnc12
4 | 6% | CCCCn1c(=O)c2ccccc2n2c(-c3ccc(N(C)C)cc3)nnc12

Second part, the compound before the results:

Row | Compound | inhibition
5 | CCCCN1C(=O)c2ccccc2NC1c1ccc(O)c(OC)c1 (stereo not given) | 15%
6 | CCCCn1c(N/N=C/c2cccc(O)c2)nc2ccccc2c1=O | 11%
7 | CCCCn1c(N/N=C/c2ccc(N(C)C)cc2)nc2ccccc2c1=O | 19%
8 | CCCCN1C(=O)c2ccccc2NC1c1cccc([N+](=O)[O-])c1 (stereo not given) | 15%
9 | CCCCN1C(=O)c2ccccc2NC1c1ccc(N(C)C)cc1 (stereo not given) | 7%
10 | COc1ccc(C2CNC(=O)C2)cc1OC1CCCC1 (stereo not given) | 90%
